# In ChEMBL document CHEMBL1201862, “PubChem BioAssay data set” (2004):
# Calls of active or inactive are those of the source.
# Experiments:
# [1] = OVCAR-3 cell viability loss – plate reader, dry powder samples, PAX8 inhibitor project, dose response (AID 743044); format: functional, cell-based
# [2] = toxicity toward immortalized ovarian surface epithelium – cell-based, plate reader, dry powder samples, cytotoxicity control for PAX8 inhibitor project, dose response (AID 743045); format: functional
# [3] = OVCAR8 cell viability loss – plate reader, dry powder samples, PAX8 project, dose response (AID 743197); format: functional, cell-based; conditions: OVCAR-8
# [4] = IGROV1 cell killing – plate reader, dry powder samples, PAX8 inhibitor project, dose response (AID 743043); format: functional, cell-based; conditions: IGROV-1
# Paired box protein Pax-8 = Paired box protein Pax-8 (Homo sapiens, UniProt Q06710); test: PAX8 transcriptional activity inhibition in RMG-I – RMG-I cells, luciferase, cherry-pick, dose response (AID 687027); format: functional, cell-based;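 note: luciferase reporter driven by Pax8 target thyroperoxidase promoter measured by SteadyGlo luminescence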
# [5] = Shn3 transcript knock-down in Clone20 cells – cell-based, qPCR, cherry-pick, dose response (AID 743415); format: functional
# [6] = non-specific 3'UTR reporter inhibition in Clone20-Shn3RL – cell-based, Renilla luciferase, cherry-picked, counter-screen for Shn3 inhibitor project, dose response (AID 624133); format: functional
# Fatty acid synthase [7] = molecular target: T1, Fatty acid synthase (Homo sapiens, UniProt P49327); test: inhibition of human FAS-TE enzyme activity – biochemical, endpoint fluorescence intensity, uHTS hits, dose response (AID 624327); format: functional;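 note: fluorescence from hydrolysis of an O-methyl fluorescein acyl ester substrate by the enzyme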
# [8] = Fluorescence-based cell-based high throughput dose response assay for inhibitors of the interaction of nucleotide-binding oligomerization domain containing 2 (NOD2) and the receptor-interacting serine-threonine kinase 2 (RIPK2).; format: functional; conditions: Homo sapiens
# [9] = molecular target: T2, Replicative DNA helicase DnaB (Mycobacterium tuberculosis, UniProt P9WMR3); test: DnaB intein splicing inhibitors, dose response, biochemical, cell-free fluorescence (AID 449749); format: functional
# T2 sequence (P9WMR3 whole entry): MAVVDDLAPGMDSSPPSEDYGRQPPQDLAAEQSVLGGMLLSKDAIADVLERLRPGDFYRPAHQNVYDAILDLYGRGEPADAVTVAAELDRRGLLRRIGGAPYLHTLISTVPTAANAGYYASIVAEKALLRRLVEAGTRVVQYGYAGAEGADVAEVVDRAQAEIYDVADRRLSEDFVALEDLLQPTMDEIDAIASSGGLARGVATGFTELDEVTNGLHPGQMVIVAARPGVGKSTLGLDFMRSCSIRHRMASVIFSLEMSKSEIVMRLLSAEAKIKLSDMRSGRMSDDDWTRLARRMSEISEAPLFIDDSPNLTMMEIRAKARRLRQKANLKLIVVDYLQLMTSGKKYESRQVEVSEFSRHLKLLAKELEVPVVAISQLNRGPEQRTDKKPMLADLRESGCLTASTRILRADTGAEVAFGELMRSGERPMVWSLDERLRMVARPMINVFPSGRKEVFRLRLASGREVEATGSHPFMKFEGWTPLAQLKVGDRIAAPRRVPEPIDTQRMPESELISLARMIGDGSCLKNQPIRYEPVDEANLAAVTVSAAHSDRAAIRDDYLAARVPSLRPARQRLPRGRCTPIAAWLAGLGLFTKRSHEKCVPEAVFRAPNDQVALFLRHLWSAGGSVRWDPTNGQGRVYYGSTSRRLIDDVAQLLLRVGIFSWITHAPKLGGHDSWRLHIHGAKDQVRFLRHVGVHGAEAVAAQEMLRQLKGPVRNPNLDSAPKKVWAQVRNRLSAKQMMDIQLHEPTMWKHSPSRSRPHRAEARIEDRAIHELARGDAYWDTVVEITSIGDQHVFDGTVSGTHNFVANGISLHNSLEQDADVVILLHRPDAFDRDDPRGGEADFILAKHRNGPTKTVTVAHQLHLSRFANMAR
# [10] = molecular target: T3, Microphthalmia-associated transcription factor (Homo sapiens, UniProt O75030); test: reducers of TRPM1 reporter luminescence, concentration series – cell-based, SK-MEL-5, cherry-picked, set 3, MITF inhibitor project, dose response (AID 493073); format: functional;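 note: SK-MEL-5 melanoma cells with luciferase driven by the MITF target TRPM1 promoter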
# T3 sequence (O75030 whole entry): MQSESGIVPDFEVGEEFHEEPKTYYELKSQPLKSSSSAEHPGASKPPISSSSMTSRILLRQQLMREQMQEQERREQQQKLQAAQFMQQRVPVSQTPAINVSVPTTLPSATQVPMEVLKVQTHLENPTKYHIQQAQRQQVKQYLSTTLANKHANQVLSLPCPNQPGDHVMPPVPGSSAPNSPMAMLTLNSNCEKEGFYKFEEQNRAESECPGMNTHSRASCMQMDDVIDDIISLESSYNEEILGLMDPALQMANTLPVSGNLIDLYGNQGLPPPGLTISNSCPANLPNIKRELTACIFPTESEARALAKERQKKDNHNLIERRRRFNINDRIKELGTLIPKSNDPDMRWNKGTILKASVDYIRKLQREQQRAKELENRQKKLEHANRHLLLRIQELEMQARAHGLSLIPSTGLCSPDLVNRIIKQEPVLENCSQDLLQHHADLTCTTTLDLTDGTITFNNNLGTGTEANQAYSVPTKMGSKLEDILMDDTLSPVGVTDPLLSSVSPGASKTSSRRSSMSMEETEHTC
# [11] = loss of viability in HepG2 cells – cell-based, CellTiter-Glo, cherry-picked, cytotoxicity control for Shn3 inhibitor project, dose response (AID 624134); format: functional
# [12] = reduction of Shn3 3'UTR-driven luciferase in osteoblasts – cell-based, Clone20 osteoblasts, firefly luciferase, cherry-picked, dose response (AID 624132); format: functional;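 note: firefly luciferase luminescence from reporter carrying the Shn3 3'UTR in osteoblasts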
# [13] = Shn3 3'UTR reporter signal decrease – cell-based, Clone20 osteoblasts, firefly luciferase, cherry-pick, set 2, Schnurri-3 inhibitor project, dose response (AID 720490); format: functional;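 note: actives lower the luminescence signal as inhibitors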
# Protein RecA = molecular target: T4, Protein RecA (Mycobacterium tuberculosis, UniProt P9WHJ3); test: Fluorescence Cell-Free Homogeneous Dose Retest to Identify Inhibitors of RecA-Intein Splicing Activity. [Related pubchem assays (depositor defined):AID2097, AID2223, AID489010, AID492950]; format: functional
# T4 sequence (P9WHJ3 whole entry): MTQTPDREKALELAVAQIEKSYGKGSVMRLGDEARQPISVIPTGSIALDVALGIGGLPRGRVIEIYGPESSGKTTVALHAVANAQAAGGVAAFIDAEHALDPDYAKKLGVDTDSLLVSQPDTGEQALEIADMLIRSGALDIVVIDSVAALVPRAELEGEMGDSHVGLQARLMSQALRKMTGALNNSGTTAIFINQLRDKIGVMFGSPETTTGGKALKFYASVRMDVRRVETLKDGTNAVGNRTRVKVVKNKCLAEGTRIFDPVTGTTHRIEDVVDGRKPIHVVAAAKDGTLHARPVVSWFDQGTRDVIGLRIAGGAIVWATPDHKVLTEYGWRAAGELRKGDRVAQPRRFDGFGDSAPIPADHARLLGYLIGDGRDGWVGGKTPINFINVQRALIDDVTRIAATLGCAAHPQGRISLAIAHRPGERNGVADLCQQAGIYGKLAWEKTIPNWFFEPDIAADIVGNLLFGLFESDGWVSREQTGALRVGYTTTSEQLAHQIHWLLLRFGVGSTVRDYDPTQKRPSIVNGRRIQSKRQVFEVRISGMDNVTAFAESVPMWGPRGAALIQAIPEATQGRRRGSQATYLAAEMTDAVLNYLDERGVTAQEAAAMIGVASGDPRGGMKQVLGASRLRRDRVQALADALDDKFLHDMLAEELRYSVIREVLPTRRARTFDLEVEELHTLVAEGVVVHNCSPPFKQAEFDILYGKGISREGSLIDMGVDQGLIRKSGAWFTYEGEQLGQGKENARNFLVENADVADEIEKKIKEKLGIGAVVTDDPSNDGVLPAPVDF
# Fatty acid synthase [14] = molecular target: T1, Fatty acid synthase; test: inhibition of human FAS-TE enzyme activity – biochemical, kinetic fluorescence intensity, dose response (AID 624326); format: functional;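 note: rate of fluorescence rise from hydrolysis of a fluorogenic O-methyl fluorescein ester substrate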
# Beta Lactamase = Beta Lactamase (Pseudomonas aeruginosa, UniProt Q932Y6); test: BLA reporter interference, concentration series – BLA reporter cells, FRET fluorescence, artefact control for NOD2-RIPK2 interaction inhibitor project, dose response (AID 651552); format: functional, cell-based
# Protein Wnt-3a = Protein Wnt-3a (Mus musculus, UniProt P27467); test: SAR analysis of small molecule antagonists of Gli-SUFU in a Wnt3a luminescent reporter assay.; format: functional
# [15] = inhibitors of non-replicating M. tuberculosis, dose response, luciferase, dry powder (AID 651620); format: functional; conditions: Mycobacterium tuberculosis
# [16] = inhibitors of non-replicating M. tuberculosis, dose response, luciferase, dry powder (AID 651619); format: functional; conditions: Mycobacterium tuberculosis
# [17] = T. cruzi growth inhibition in host cells, dose response, cell-based, plate reader, dry powder, set 2 (AID 652275); format: functional
# [18] = A Cell-Based Confirmatory Screen for Compounds that Inhibit VEEV, TC-83 (3).; format: functional
# [19] = mouse embryonic fibroblast toxicity – cell-based, plate reader, dry powder, set 2, cytotoxicity control, dose response (AID 652280); format: functional; conditions: NIH3T3
# T1 sequence (P49327 whole entry, the tested form may be a part): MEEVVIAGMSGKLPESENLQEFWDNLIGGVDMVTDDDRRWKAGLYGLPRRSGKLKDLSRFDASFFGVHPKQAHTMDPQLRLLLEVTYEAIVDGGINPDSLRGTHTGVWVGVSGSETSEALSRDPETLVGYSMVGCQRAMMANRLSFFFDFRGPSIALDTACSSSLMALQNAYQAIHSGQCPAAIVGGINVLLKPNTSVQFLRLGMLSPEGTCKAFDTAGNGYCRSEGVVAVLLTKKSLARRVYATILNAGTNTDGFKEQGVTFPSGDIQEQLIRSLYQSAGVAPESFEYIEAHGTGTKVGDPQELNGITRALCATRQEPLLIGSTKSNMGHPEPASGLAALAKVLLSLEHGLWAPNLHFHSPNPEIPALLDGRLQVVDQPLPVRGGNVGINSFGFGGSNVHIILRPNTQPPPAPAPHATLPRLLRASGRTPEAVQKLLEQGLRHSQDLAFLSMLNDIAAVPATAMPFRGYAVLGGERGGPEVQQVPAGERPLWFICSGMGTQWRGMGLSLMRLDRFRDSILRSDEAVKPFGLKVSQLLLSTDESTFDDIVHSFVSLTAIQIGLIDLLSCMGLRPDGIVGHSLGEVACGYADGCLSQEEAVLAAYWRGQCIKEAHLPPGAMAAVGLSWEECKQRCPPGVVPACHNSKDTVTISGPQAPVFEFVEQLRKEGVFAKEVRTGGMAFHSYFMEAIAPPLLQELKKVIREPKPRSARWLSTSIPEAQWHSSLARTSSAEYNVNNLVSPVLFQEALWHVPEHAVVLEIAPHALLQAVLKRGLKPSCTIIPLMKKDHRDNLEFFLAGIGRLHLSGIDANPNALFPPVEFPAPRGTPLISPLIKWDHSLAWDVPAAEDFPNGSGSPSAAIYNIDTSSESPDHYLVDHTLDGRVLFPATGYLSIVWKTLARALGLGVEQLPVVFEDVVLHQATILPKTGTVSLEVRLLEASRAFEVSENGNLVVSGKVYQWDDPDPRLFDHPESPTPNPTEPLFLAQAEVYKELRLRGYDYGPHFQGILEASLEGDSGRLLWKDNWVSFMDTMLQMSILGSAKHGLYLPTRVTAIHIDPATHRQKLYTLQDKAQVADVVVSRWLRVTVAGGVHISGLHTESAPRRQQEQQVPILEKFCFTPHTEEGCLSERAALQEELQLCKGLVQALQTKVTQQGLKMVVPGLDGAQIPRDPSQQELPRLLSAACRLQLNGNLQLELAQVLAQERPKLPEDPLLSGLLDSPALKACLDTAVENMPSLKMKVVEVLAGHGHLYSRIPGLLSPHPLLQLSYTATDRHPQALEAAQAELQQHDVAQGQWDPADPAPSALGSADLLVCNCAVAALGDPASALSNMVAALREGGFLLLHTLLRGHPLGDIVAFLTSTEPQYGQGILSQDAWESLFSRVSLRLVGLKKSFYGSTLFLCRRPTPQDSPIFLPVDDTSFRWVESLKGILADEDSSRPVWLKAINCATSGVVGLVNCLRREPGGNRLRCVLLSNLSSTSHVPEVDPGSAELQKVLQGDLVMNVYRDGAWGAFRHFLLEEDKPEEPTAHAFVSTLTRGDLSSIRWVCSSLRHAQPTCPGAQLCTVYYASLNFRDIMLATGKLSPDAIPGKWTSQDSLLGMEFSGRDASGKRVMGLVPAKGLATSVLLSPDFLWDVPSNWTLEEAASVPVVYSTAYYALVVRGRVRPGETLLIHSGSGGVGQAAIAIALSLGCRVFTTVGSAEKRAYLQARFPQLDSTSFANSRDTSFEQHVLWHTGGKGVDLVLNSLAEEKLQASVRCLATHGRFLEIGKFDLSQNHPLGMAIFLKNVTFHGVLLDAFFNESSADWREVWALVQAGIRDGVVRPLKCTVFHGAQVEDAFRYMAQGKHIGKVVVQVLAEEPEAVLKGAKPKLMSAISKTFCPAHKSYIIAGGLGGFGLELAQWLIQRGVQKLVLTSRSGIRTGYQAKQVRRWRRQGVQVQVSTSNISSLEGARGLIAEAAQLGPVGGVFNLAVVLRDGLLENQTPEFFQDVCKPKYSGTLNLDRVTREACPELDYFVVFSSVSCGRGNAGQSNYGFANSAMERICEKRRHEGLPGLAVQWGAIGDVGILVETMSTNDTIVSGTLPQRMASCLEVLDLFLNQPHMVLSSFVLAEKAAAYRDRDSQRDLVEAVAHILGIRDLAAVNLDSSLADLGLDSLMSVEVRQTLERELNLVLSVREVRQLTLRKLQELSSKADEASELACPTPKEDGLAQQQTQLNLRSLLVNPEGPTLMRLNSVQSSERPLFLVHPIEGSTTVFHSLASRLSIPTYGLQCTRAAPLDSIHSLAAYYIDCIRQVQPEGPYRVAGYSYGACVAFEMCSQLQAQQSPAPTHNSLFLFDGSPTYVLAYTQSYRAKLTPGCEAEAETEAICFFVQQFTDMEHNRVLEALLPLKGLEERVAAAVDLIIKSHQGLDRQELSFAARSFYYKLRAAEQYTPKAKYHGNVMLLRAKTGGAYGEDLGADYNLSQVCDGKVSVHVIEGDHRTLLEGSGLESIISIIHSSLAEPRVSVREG
# Sequence of Beta Lactamase (Q932Y6 whole entry): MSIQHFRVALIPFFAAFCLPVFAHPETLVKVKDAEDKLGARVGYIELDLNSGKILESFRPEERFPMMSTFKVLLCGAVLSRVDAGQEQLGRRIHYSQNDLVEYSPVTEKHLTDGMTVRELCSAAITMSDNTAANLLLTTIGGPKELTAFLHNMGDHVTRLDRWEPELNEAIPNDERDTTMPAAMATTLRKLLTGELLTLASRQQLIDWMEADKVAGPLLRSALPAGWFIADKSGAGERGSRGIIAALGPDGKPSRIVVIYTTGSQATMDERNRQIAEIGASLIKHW
# Sequence of Paired box protein Pax-8 (Q06710 whole entry): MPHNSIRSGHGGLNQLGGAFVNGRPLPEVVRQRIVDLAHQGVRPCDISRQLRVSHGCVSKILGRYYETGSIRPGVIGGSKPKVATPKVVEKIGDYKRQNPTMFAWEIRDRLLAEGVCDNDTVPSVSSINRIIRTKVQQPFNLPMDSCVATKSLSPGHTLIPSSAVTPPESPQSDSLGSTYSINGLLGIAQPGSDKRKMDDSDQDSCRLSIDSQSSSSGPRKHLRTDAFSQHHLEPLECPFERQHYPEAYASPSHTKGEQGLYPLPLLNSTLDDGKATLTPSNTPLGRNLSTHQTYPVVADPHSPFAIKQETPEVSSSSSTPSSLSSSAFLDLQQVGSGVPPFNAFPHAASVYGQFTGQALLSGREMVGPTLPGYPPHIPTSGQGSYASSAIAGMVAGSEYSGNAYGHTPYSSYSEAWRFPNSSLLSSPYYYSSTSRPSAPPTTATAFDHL
# Sequence of Protein Wnt-3a (P27467 whole entry): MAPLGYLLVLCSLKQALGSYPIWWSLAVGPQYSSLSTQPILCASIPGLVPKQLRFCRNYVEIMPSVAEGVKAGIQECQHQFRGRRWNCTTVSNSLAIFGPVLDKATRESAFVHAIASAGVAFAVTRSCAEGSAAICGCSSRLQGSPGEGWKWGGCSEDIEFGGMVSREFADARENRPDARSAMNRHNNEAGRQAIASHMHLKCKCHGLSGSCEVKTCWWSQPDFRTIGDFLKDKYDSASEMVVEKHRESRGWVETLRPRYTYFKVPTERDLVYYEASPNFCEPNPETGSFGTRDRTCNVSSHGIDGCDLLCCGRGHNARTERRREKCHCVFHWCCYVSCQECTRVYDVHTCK
smiles,measurement,setting,value
C[C@H]1CCCCO[C@H](CN(C)C(=O)Nc2ccc(C(F)(F)F)cc2)[C@@H](C)CN([C@@H](C)CO)C(=O)c2cc(NS(=O)(=O)c3ccc(Cl)cc3)ccc2O1,AC50,[1],20.1 µM (active)
same,AC50,[2],51.5 µM (active)
same,AC50,[3],37.2 µM (active)
same,AC50,[4],47.6 µM (active)
same,AC50,Paired box protein Pax-8,4.68 µM (active)
CC(C)[C@H](NC(=O)OC(C)(C)C)c1nnc(S(=O)(=O)Cc2c(F)cccc2Cl)o1,AC50,[5],12 µM (active)
same,AC50,[6],13.5 µM (active)
same,IC50,Fatty acid synthase [7],3.02 µM (active)
same,IC50,[8],1.97 µM (active)
same,AC50,[9],4.9 µM (active)
same,AC50,[10],11.6 µM (active)
same,AC50,[11],61.7 µM (active)
same,AC50,[12],1.08 µM (active)
same,AC50,[13],3.07 µM (active)
same,EC50,Protein RecA,9.61 µM (active)
same,IC50,Fatty acid synthase [14],1.61 µM (active)
same,IC50,Beta Lactamase,10.5 µM (inactive)
O=C(Nc1cc(N2CCNCC2)ncn1)c1ccccc1,IC50,Protein Wnt-3a,> 21.8 µM (inactive)
Fc1ccc(-c2nnc(SCc3cn(-c4ccccc4)nn3)o2)cc1,IC90,[15],1 µM (active)
same,IC90,[16],1 µM (active)
CCC(=O)N1CC[C@@H]2[C@H]1c1cc(-c3ccccc3)ccc1N(C)[C@@H]2CO,AC50,[17],8.49 µM (active)
O=C(Cc1ccccc1)Nc1nc2c(s1)CCCC2,IC50,[18],9.33 µM (active)
Cc1ccccc1-c1ccc([C@H]2[C@H](CO)N3CCCCN(CC4CC4)C[C@@H]23)cc1,AC50,[19],3.99 µM (active)
